Results reported in patent US20250320213A1, “Nitrogen-Containing Heterocyclic Compounds” (Pfizer Inc., priority 2024, published 2025).

Legend:
STAT6 = biological target: T1, STAT6 (Homo sapiens, UniProt P42226); assay: STAT6 Reporter Luciferase Assay (IL-13 stimulated HaCaT keratinocyte NanoLuc reporter cells); assay type: cell-based; conditions: IL-13 stimulated HaCaT STAT6 NanoLuc reporter cells; read-out: Reporter EC50
T1 construct: stably transfected HaCaT keratinocyte cell line, which expresses NanoLuc luciferase reporter gene under the transcriptional control of the STAT6 responsive promoter; endogenous in cells; host or cells: HaCaT keratinocyte reporter cell line (stably transfected with a NanoLuc reporter)
T1 sequence (P42226 1-847): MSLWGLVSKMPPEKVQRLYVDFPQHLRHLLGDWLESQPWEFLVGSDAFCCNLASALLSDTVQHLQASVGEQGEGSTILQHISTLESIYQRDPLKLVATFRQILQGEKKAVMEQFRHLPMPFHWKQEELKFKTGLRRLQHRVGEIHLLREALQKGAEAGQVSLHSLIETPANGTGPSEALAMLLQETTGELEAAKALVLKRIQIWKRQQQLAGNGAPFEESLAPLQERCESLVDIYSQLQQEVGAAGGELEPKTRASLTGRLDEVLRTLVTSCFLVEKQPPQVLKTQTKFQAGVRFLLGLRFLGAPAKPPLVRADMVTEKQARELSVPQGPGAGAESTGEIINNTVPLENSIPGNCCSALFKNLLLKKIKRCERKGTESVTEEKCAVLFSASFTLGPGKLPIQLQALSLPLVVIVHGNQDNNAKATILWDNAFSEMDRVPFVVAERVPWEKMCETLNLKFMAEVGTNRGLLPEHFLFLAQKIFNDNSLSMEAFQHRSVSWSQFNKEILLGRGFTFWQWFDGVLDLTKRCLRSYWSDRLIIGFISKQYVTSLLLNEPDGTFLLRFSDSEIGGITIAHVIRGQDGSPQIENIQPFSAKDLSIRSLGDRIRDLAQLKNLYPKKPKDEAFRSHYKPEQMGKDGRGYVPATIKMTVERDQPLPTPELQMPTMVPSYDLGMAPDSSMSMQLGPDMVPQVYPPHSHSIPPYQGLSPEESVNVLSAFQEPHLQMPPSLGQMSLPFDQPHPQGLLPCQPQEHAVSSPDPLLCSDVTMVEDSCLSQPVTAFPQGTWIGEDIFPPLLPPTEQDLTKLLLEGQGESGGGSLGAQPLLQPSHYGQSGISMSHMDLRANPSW
How it was run: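 Luminescence from a NanoLuc reporter driven by the STAT6-responsive IL-13Ra2 promoter in HaCaT keratinocytes serves as the read-out. Compounds are given 2 h before a 4 h stimulation with 0.12 nM IL-13.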

[1] = tested on: CCL17 secretion in peripheral human whole blood; assay: Human Whole Blood (HWB) CCL17 TR-FRET Assay (IL-13 stimulated CCL17 secretion); assay type: cell-based; conditions: human whole blood, IL-13 stimulated
How it was run: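 Heparin-anticoagulated human blood; cpd 11-pt 3-fold dilution, duplicate, 2 h 37 °C preinc; IL-13 10 ng/mL final, 48 h 37 °C; spin, serum CCL17 by TR-FRET ELISA, 16 h RT, 665/615 ratio; IC50.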

Row | Compound | EC50 (STAT6) | IC50 ([1]; 48 hours) | IC50 ([1]; Homo sapiens, 48 h)
1 | CC(C)n1nc(C(=O)NCc2ccc(NC(=O)N(C)C)cc2)c2c1CCN(c1ccc(C3CCCO3)cn1)C2 (single isomer, unassigned) [Example 361, rel-(R or S)-N-(4-(3,3-dimethylureido)benzyl)-1-isopropyl-5-(5-(tetrahydrofuran-2-yl)pyridin-2-yl)-4,5,6,7-tetrahydro-1H-pyrazolo[4,3-c]pyridine-3-carboxamide] | 158 nM | – | > 4080 nM
2 | CN(C)C(=O)Nc1ccc(CNC(=O)c2nn(C)c3c2CN(c2ncc(C(=O)N(C)C)cn2)CC3C(F)(F)F)cc1 (single isomer, unassigned) [Example 392, rel-(R or S)-5-(5-(dimethylcarbamoyl)pyrimidin-2-yl)-N-(4-(3,3-dimethylureido)benzyl)-1-methyl-7-(trifluoromethyl)-4,5,6,7-tetrahydro-1H-pyrazolo[4,3-c]pyridine-3-carboxamide] | 568 nM | – | 1080 nM
3 | CC(C)n1nc(C(=O)NCc2ccc(NC(=O)N(C)C)cc2)c2c1CCN(c1ccc(C3CCCCO3)cn1)C2 (single isomer, unassigned) [Example 394, rel-(R or S)-N-(4-(3,3-dimethylureido)benzyl)-1-isopropyl-5-(5-(tetrahydro-2H-pyran-2-yl)pyridin-2-yl)-4,5,6,7-tetrahydro-1H-pyrazolo[4,3-c]pyridine-3-carboxamide] | > 7660 nM | > 30000 nM | –
4 | CCc1nc(C(=O)NCc2ccc(NC(=O)N(C)C)cc2)c2n1C(C)CN(c1ccc(C(=O)N(C)C)cc1)C2 (single isomer, unassigned) [Example 428, rel-(R or S)-7-(4-(dimethylcarbamoyl)phenyl)-N-(4-(3,3-dimethylureido)benzyl)-3-ethyl-5-methyl-5,6,7,8-tetrahydroimidazo[1,5-a]pyrazine-1-carboxamide] | 17 nM | 140 nM | –
5 | CCc1nc(C(=O)NCc2ccc(NC(=O)N(C)C)cc2)c2n1C(C)CN(c1ccc(C(=O)N(C)C)cc1)C2 (single isomer, unassigned) [Example 429, rel-(R or S)-7-(4-(dimethylcarbamoyl)phenyl)-N-(4-(3,3-dimethylureido)benzyl)-3-ethyl-5-methyl-5,6,7,8-tetrahydroimidazo[1,5-a]pyrazine-1-carboxamide] | 1 nM | 6 nM | –
6 | CCn1nc(C(=O)NCc2ccc(NC(=O)N(C)C)cc2)c2c1[C@H](C)[C@@H](C)N(c1ncc(C(=O)N(C)C)cn1)C2 (single isomer, unassigned) [Example 446] | 15 nM | – | 80 nM
7 | CCn1nc(C(=O)NCc2ccc(NC(=O)N(C)C)cc2)c2c1[C@@H](C)[C@H](C)N(c1ncc(C(=O)N(C)C)cn1)C2 (single isomer, unassigned) [Example 447] | 0.4 nM | – | > 413 nM
8 | CC(C)n1nc(C(=O)NCc2ccc(NC(=O)N(C)C)cc2)c2c1C(C(F)(F)F)CN(c1ncc(C(=O)N(C)C)cn1)C2 (single isomer, unassigned) [Example 461, rel-(R or S)-5-(5-(dimethylcarbamoyl)pyrimidin-2-yl)-N-(4-(3,3-dimethylureido)benzyl)-1-isopropyl-7-(trifluoromethyl)-4,5,6,7-tetrahydro-1H-pyrazolo[4,3-c]pyridine-3-carboxamide] | 0.2 nM | < 1 nM | –

Continued, values first:

Row | EC50 (STAT6) | IC50 ([1]; 48 hours) | IC50 ([1]; Homo sapiens, 48 h) | Compound
9 | 1 nM | 20 nM | – | CNC(=O)c1ccc(CNC(=O)c2nn(C(C)C)c3c2CN(c2ccc(C(=O)N(C)C)cn2)CC3C(F)(F)F)cc1 (single isomer, unassigned) [Example 357, rel-(R or S)-5-(5-(dimethylcarbamoyl)pyridin-2-yl)-1-isopropyl-N-(4-(methylcarbamoyl)benzyl)-7-(trifluoromethyl)-4,5,6,7-tetrahydro-1H-pyrazolo[4,3-c]pyridine-3-carboxamide]
10 | 358 nM | 869 nM | – | CC(CO)n1nc(C(=O)NCc2ccc(NC(=O)N(C)C)cc2)c2c1CCN(c1ccc(C(=O)N(C)C)cn1)C2 (single isomer, unassigned) [Example 359, rel-(R or S)-5-(5-(dimethylcarbamoyl)pyridin-2-yl)-N-(4-(3,3-dimethylureido)benzyl)-1-(1-hydroxypropan-2-yl)-4,5,6,7-tetrahydro-1H-pyrazolo[4,3-c]pyridine-3-carboxamide]
11 | 74 nM | 91 nM | – | CC(CO)n1nc(C(=O)NCc2ccc(NC(=O)N(C)C)cc2)c2c1CCN(c1ccc(C(=O)N(C)C)cn1)C2 (single isomer, unassigned) [Example 360, rel-(R or S)-5-(5-(dimethylcarbamoyl)pyridin-2-yl)-N-(4-(3,3-dimethylureido)benzyl)-1-(1-hydroxypropan-2-yl)-4,5,6,7-tetrahydro-1H-pyrazolo[4,3-c]pyridine-3-carboxamide]
12 | 838 nM | > 3490 nM | – | CC(C)n1nc(C(=O)NCc2ccc(NC(=O)N(C)C)cc2)c2c1CCN(c1ccc(C3CCCO3)cn1)C2 (single isomer, unassigned) [Example 362, rel-(R or S)-N-(4-(3,3-dimethylureido)benzyl)-1-isopropyl-5-(5-(tetrahydrofuran-2-yl)pyridin-2-yl)-4,5,6,7-tetrahydro-1H-pyrazolo[4,3-c]pyridine-3-carboxamide]
13 | 740 nM | – | 2170 nM | CN(C)C(=O)Nc1ccc(CNC(=O)c2nn(C)c3c2CN(c2ccc(C(=O)N(C)C)cn2)CC3C(F)(F)F)cc1 (single isomer, unassigned) [Example 391, rel-(R or S)-5-(5-(dimethylcarbamoyl)pyridin-2-yl)-N-(4-(3,3-dimethylureido)benzyl)-1-methyl-7-(trifluoromethyl)-4,5,6,7-tetrahydro-1H-pyrazolo[4,3-c]pyridine-3-carboxamide]
14 | > 8750 nM | – | > 30000 nM | CC(C)n1nc(C(=O)NCc2ccc(NC(=O)N(C)C)cc2)c2c1CCN(c1ccc(C3CCCCO3)cn1)C2 (single isomer, unassigned) [Example 393, rel-(R or S)-N-(4-(3,3-dimethylureido)benzyl)-1-isopropyl-5-(5-(tetrahydro-2H-pyran-2-yl)pyridin-2-yl)-4,5,6,7-tetrahydro-1H-pyrazolo[4,3-c]pyridine-3-carboxamide]
15 | 158 nM | – | 1380 nM | C[C@H]1c2c(C(=O)NCc3ccc(NC(=O)N(C)C)cc3)nn(C)c2CCN1c1ccc(C(=O)N(C)C)cn1 (single isomer, unassigned) [Example 444]
16 | 2 nM | – | 21 nM | C[C@@H]1c2c(C(=O)NCc3ccc(NC(=O)N(C)C)cc3)nn(C)c2CCN1c1ccc(C(=O)N(C)C)cn1 (single isomer, unassigned) [Example 445]
17 | 13 nM | – | > 30000 nM | CC(C)n1nc(C(=O)NCc2ccc(NC(=O)N(C)C)cc2)c2c1[C@H](C)[C@@H](C)N(c1ncc(C(=O)N(C)C)cn1)C2 (single isomer, unassigned) [Example 448]
18 | 0.2 nM | – | 4 nM | CC(C)n1nc(C(=O)NCc2ccc(NC(=O)N(C)C)cc2)c2c1[C@@H](C)[C@H](C)N(c1ncc(C(=O)N(C)C)cn1)C2 (single isomer, unassigned) [Example 449]
